Laboratory results as given in paper PMC11475408, “All‐Inorganic Polyoxometalates Act as Superchaotropic Membrane Carriers” (Advanced Materials (Deerfield Beach, Fla.), 2023).
Values joined by “and” are separate entries in the source; they are usually repeats but may differ in a detail not shown here. Equal values may be shown once.

Experiments:
cationic oligopeptides = assay: ITC, POM with the peptides (general statement); type: binding
Procedure: To affect membrane transport, any carrier needs to display an affinity toward the cargo as well as toward the lipid bilayer. Accordingly, the interaction between [PVW11]^4‒ and [SiMoW11]^4‒ and the peptides was analyzed by isothermal titration calorimetry (ITC, Figure 2c,d; and Figures S10 and S11, Supporting Information). […] (enthalpically driven, interaction with the peptide backbones, Table S6, Supporting Information) and Coulombic interactions (interaction with arginine and lysine side chains). The strong but reversible intermolecular interactions between the low‐charged POMs and the cationic oligopeptides present an interesting finding, which was measured for both, oligo‐ and polypeptides. Previous ITC studies have focused only on the binding of proteins with highly charged and therefore weakly chaotropic POMs (n < −6, Table S3, Supporting Information), where electrostatic interactions were implied as main driving force.^[ [65], [66], [67], [68], [69], [70], [71], [72], [73] ^]
All experiments were performed with a VP‐ITC MicroCalorimeter from MicroCal, Int,. at atmospheric pressure and 298.15 K. Solutions were degassed and thermostatic prior to the titration experiments in a ThermoVac accessory. […] Dilution heats were determined by titration of the POM into buffer and subtracted from the reaction heat. […]

heptalysine = assay: ITC, POM into heptalysine; type: binding; details: 10 mM Tris, pH 7.4, value is Ka divided by 10^7
Procedure: All experiments were performed with a VP‐ITC MicroCalorimeter from MicroCal, Int,. at atmospheric pressure and 298.15 K. Solutions were degassed and thermostatic prior to the titration experiments in a ThermoVac accessory. A constant volume of POM ([PVW11]^4‒ or [SiMoW11]^4‒) (10 µL per injection) was injected into the oligopeptide solution (heptaArg, protamine, polyArg or heptaLys) in 10 mM Tris, pH 7.4 to determine the apparent binding affinity of [PVW11]^4‒ and [SiMoW11]^4‒ with the oligopeptides. Dilution heats were determined by titration of the POM into buffer and subtracted from the reaction heat. The neat reaction heat was fitted with Origin 7.0 software by using the “one‐set‐of‐sites” model to obtain the complex stability constant (K a) and molar reaction enthalpy (∆H°). The free energy (∆G°) and entropy changes (∆S°) were obtained according to the relation: ∆G° = −RTlnK a = ∆H°−T∆S°.
Figure S11. Microcalorimetric titrations in 10 mM Tris, pH 7.4: Raw ITC data (top) for the sequential injections of POM solution into a heptalysine solution, and apparent reaction heats (bottom) obtained from the integration of the calorimetric traces. POM/heptalysine concentrations in µM: a, 200/8 and b, 150/10. Error data is 5% for the n values and ± 0.5 kcal mol‒1 for ΔH and TΔS (duplicate […]
Table S6. […]

[1] = Stability of POMs in nutrient mixture F-12 Ham by NMR; type: physicochemical
Procedure: To better mimic biological membranes, which contain negatively charged components and cholesterol, equivalent transport experiments were performed in anionic liposomes^[ [19], [20] ^] with the prototypal POM carriers, [PVW11]^4‒ and [SiMoW11]^4‒ . […] This encouraged us to transfer the experiments to CHO‐K1 (Chinese hamster ovary) cells, after we had confirmed sufficient stability of the most promising POM carriers, [PVW11]^4‒ and [SiMoW11]^4‒ , in the cellular nutrient mixture (F‐12 Ham's medium, Figures S26–S28C, Supporting Information).
Table S9. Results of stability investigation by NMR spectroscopy.
11 product, presumably [SiIVWVI12O40]4–) […]
product, presumably [SiIVWVI12O40]4–)
[AlW ]5‒ freshly prepared
[GeAlW ]5‒ freshly prepared […]
prepared ‒13.7; ‒14.7 intermediate anions
Stability of [PVW11]4‒ in 10 mM Mes buffer pH 5.5: 31P NMR studies were firstly performed on 3 mM solutions of [α-PVVVWVI11O40]4‒ in 10 mM Mes buffer pH 5.5 (Figure S25). The 31P NMR recorded immediately ([…]), one day (Figure S25B), and five days (Figure S25C) after solution preparation display the same signals that can be attributed to the intact [α-PVVVWVI11O40]4‒ (‒14.9 ppm) and the monolacunary [α-PVWVI11O40]7‒ (‒10.8 ppm) species formed upon partial hydrolysis. […]
Figure S24. 31P (A) and 51V (B) NMR spectra of 3 mM solutions of [PVW11]4‒ recorded in D2O. […]

Row | % parent anion, nutrient mixture F-12 Ham freshly prepared ([1]; 3 mM POM, F-12 Ham pH 7.4, 31P NMR integration) [%] | % parent anion, F-12 Ham after 1 h at 37 °C (183W NMR) ([1]; 10 mM POM, F-12 Ham (final pH 5.7), 183W NMR signal intensities) | Substance | Supramolecular interaction with the peptides (order of magnitude) (cationic oligopeptides) | Ka/ 107, heptalysine (heptalysine) [M‒1]
1 | 43 |  | K4[α‐P^VV^VW^VI 11O40]·4H2O [[PVW11]^4‒] | ~10^7 M ^−1 | 2.8
2 |  | 50% and ~ 50% | K4[α‐Si^IVMo^VIW^VI 11O40]·24H2O [[SiMoW11]^4‒] | ~10^7 M ^−1 | 4.1
